Counter-ions that a name gives are not always drawn.
Experiments:
hNav1.7 [1] = molecular target: T1, hNav1.7 (Homo sapiens (Human), UniProt Q15858); test: Tritiated compound binding to membranes from cells expressing hNav1.7 and the β1 subunit, competitive binding (LBA, Ex. 243A); settings: 100 pM [3H]compound, 18 h, room temperature; read-out: Nav1.7 LBA (Ex. 243A) IC50
Target sequence in this assay (Q15858 whole entry, looked up): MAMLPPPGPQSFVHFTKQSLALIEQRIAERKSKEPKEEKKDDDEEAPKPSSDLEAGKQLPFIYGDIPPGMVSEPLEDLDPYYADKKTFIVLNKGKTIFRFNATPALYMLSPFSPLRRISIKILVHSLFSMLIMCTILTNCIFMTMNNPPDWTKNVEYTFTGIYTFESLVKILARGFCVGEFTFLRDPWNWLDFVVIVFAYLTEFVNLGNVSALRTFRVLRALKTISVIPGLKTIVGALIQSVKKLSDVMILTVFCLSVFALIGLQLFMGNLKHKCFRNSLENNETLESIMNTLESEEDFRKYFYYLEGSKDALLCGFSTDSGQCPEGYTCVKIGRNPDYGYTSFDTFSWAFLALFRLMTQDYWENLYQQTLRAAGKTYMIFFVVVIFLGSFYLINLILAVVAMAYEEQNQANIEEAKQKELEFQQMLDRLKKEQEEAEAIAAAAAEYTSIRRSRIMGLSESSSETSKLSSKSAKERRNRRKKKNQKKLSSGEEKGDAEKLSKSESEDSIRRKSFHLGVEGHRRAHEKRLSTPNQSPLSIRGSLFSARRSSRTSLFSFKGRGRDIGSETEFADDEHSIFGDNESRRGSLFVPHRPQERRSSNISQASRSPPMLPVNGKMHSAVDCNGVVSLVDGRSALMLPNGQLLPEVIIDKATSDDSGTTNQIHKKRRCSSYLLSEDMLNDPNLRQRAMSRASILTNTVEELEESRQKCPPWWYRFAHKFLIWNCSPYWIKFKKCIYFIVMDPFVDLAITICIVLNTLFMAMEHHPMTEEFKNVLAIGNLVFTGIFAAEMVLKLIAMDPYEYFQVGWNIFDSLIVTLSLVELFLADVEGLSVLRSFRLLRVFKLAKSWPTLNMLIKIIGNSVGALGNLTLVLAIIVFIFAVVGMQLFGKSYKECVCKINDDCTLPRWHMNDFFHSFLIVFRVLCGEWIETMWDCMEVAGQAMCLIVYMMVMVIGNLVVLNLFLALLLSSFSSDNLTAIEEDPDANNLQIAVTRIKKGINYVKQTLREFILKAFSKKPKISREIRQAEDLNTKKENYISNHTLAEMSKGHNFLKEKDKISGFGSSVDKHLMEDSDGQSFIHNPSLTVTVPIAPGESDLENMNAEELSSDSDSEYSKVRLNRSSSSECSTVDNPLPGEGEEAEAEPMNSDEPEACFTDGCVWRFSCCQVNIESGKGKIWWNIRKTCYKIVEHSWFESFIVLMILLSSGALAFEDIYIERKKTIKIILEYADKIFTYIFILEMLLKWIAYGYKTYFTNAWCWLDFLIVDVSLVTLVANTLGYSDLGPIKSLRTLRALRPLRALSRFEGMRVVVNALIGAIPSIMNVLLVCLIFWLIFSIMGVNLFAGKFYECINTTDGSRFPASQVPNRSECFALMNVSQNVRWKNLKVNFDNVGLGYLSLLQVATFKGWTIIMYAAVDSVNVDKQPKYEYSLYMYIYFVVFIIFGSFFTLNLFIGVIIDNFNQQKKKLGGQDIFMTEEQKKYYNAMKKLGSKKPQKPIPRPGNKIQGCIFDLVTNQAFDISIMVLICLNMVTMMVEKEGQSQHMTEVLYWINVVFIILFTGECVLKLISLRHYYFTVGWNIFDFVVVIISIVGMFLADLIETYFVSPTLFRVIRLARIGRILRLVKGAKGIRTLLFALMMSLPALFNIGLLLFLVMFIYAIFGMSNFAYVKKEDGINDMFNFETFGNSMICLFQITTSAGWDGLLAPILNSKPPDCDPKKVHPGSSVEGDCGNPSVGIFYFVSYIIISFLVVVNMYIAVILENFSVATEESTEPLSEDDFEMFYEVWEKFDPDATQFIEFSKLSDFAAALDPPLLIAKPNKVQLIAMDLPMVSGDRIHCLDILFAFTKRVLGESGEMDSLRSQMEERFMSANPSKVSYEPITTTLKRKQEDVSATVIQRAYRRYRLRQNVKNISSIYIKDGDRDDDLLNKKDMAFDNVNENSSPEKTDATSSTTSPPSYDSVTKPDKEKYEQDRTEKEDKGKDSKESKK
Target sequence in this assay (Q07699 whole entry partner, looked up): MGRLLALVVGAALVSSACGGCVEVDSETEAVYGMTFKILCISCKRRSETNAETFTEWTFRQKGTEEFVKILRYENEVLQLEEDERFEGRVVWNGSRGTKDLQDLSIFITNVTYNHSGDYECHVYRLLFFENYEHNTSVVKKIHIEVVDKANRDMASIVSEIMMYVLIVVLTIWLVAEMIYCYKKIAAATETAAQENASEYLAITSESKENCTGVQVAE

hNav1.7 [2] = molecular target: T1, hNav1.7; test: Patch voltage clamp electrophysiology assay (EP), Syncropatch 384PE, CHO cells expressing Nav1.7; type: cell-based; settings: holding potential -50 mV; […] compound incubation; read-out: EP_SP hNav1.7 (Ex. 243B) IC50
How it was run: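 Automated whole-cell patch clamp on CHO cells stably expressing human Nav1.7, CsCl/EGTA internal and NMDG/80 mM Na+ external (pH 7.4). From −50 mV holding, −10 mV step, 20 ms recovery at −150 mV, then second −10 mV pulse where block is measured; inhibition after 7.5 min compound incubation.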
Target sequence in this assay (Q15858 other isoform, or with tags, fused parts or gaps): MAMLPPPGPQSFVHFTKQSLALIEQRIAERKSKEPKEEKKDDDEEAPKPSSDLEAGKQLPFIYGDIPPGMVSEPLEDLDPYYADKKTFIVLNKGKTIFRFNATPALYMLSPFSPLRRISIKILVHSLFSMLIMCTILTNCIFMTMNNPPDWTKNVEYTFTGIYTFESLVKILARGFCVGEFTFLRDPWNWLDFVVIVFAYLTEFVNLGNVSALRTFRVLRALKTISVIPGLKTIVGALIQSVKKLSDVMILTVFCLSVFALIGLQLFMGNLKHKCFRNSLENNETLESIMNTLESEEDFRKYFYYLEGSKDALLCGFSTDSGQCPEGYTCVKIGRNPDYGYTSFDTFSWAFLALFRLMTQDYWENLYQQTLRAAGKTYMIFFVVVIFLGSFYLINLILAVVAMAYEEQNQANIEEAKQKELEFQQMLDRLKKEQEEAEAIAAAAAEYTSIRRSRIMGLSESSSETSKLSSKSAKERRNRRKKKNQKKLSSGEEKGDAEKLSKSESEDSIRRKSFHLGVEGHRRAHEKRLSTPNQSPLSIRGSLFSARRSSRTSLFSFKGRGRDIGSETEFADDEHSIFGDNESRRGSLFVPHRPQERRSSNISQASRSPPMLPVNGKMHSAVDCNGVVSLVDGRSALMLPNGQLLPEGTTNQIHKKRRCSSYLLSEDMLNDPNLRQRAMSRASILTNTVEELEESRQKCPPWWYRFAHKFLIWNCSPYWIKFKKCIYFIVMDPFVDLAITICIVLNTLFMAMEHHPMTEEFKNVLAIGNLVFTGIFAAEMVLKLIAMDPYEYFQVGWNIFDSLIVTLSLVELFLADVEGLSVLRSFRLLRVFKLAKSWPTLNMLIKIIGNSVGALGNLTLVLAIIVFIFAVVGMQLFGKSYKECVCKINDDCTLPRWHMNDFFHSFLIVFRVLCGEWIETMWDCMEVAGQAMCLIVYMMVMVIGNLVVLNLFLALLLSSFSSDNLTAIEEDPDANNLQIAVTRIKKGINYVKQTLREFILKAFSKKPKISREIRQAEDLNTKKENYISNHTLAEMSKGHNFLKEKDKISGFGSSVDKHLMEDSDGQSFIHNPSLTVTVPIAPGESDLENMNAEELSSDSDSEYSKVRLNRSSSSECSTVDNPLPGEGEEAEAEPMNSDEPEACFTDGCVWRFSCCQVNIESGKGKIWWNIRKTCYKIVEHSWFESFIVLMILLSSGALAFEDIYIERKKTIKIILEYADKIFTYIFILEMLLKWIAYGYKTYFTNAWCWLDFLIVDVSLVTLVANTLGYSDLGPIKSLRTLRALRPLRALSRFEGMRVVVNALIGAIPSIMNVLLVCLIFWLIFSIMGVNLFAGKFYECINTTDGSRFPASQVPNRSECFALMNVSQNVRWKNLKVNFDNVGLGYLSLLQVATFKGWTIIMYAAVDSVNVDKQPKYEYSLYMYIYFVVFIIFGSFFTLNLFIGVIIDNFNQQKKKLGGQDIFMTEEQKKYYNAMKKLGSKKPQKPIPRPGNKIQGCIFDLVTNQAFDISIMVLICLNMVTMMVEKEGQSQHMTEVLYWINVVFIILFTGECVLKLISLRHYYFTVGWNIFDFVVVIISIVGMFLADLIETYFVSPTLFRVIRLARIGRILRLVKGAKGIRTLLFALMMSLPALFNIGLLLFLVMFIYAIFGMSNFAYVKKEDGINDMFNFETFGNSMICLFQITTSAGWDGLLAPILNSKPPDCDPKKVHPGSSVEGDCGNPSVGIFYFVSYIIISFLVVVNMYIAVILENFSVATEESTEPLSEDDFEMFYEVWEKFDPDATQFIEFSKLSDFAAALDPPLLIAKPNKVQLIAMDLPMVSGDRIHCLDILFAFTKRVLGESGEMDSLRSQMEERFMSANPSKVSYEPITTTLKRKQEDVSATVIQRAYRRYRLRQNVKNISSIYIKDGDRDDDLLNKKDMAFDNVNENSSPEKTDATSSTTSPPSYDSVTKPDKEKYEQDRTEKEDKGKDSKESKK

hNav1.7 [3] = molecular target: T1, hNav1.7; test: Tritiated compound binding to membranes from cells expressing hNav1.7 and the β1 subunit, modified protocol (LBA, Ex. 243B); settings: 300 pM [3H]compound, room temperature, read-out: Nav1.7 LBA (Ex. 243B) IC50
Target sequence in this assay (Q15858 whole entry, looked up): as the sequence (Q15858 whole entry, looked up) above
Target sequence in this assay (Q07699 whole entry partner, looked up): as the sequence (Q07699 whole entry partner, looked up) above

Structure (SMILES) | IC50 (hNav1.7 [1]) [nM] | IC50 (hNav1.7 [2]) [nM] | IC50 (hNav1.7 [3]) [nM]
COCCN(C)[C@H]1CCCC[C@@H]1Nc1cc(F)c(S(=O)(=O)Nc2nccs2)cc1Cl [Example 32, 5-chloro-2-fluoro-4-(((1S,2S)-2-((2-methoxyethyl)(methyl)amino)cyclohexyl)amino)-N-(thiazol-2-yl)benzenesulfonamide formate] | 38.2 | 24.6 | 
CN(C)[C@H]1CCCC[C@@H]1Nc1cc(F)c(S(=O)(=O)Nc2cccc(F)n2)cc1Cl [Example 35, 5-chloro-4-(((1S,2S)-2-(dimethylamino)cyclohexyl)amino)-2-fluoro-N-(6-fluoropyridin-2-yl)benzenesulfonamide] | 65.5 | 59.9 | 313
CN(CCO)[C@H]1CCCC[C@@H]1Nc1cc(F)c(S(=O)(=O)Nc2nccs2)cc1Cl [Example 38, 5-chloro-2-fluoro-4-(((1S,2S)-2-((2-hydroxyethyl)(methyl)amino)cyclohexyl)amino)-N-(thiazol-2-yl)benzenesulfonamide formate] | 5.05 | 3.06 | 34.9
CN(C1CNC1)[C@H]1CCCC[C@@H]1Nc1cc(F)c(S(=O)(=O)Nc2nccs2)cc1Cl [Example 39, 4-(((1S,2S)-2-(azetidin-3-yl(methyl)amino)cyclohexyl)amino)-5-chloro-2-fluoro-N-(thiazol-2-yl)benzenesulfonamide dihydrochloride] | 1.88 | 1.4 | 12.8
CN1CC(N(C)[C@H]2CCCC[C@@H]2Nc2cc(F)c(S(=O)(=O)Nc3nccs3)cc2Cl)C1 [Example 41, 5-chloro-2-fluoro-4-(((1S,2S)-2-(methyl(1-methylazetidin-3-yl)amino)cyclohexyl)amino)-N-(thiazol-2-yl)benzenesulfonamide formate] | 4.51 | 3.4 | 
CN(C1CNC1)[C@H]1CCCC[C@@H]1Nc1cc(F)c(S(=O)(=O)Nc2ccncn2)cc1Cl [Example 53, 4-(((1S,2S)-2-(azetidin-3-yl(methyl)amino)cyclohexyl)amino)-5-chloro-2-fluoro-N-(pyrimidin-4-yl)benzenesulfonamide] | 30.5 | 5.69 | 
CN1CC(N(C)[C@H]2CCCC[C@@H]2Nc2cc(F)c(S(=O)(=O)Nc3cccc(F)n3)cc2Cl)C1 [Example 63, 5-chloro-2-fluoro-N-(6-fluoropyridin-2-yl)-4-(((1S,2S)-2-(methyl(1-methylazetidin-3-yl)amino)cyclohexyl)amino)benzenesulfonamide] | 9.81 | 5.35 | 
CN(C1CNC1)[C@H]1CCCC[C@@H]1Oc1cc(F)c(S(=O)(=O)Nc2nccs2)cc1Cl [Example 66, 4-(((1S,2S)-2-(azetidin-3-yl(methyl)amino)cyclohexyl)oxy)-5-chloro-2-fluoro-N-(thiazol-2-yl)benzenesulfonamide formate] | 2.07 | 2.91 | 7.74
